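Exposure lasted 48 hours, with cells grown in 96-well plates and compounds tested at five concentrations. Abbreviation: GI50, concentration required for 50% inhibition of growth.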 Calls of active or inactive are those of the source. No stated cut-off is given here; in the data, active = GI50 up to about 1.1 µM and inactive = higher.

Some test systems named below: HOP-92; A498; RXF 393; NCI-H23; NCI-H226; NCI-H460; OVCAR-3; HT-29; OVCAR-4; HCT-15; K562; COLO 205; SK-MEL-2; TK-10; MOLT-4; SF-295; OVCAR-5; HL-60.
Assay in all cases: inhibition of tumour cell growth, NCI panel, 48 h

Consider `CC(=O)OC1COC(N2CCc3cc([N+](=O)[O-])ccc32)C(OC(C)=O)C1OC(C)=O` (centres undefined), for which the GI50 was 36 µM (inactive) in the assay on HOP-92; 7.23 µM (inactive) in the assay on A498; > 100 µM (inactive) in the assay with RXF 393; > 100 µM (inactive) with NCI-H23; 63.7 µM (inactive) in the assay on NCI-H226; > 100 µM (inactive) with NCI-H460. The GI50 in the assay on OVCAR-3 is > 100 µM (inactive); with HT-29, > 100 µM (inactive); in the assay on OVCAR-4, > 100 µM (inactive); in the assay with HCT-15, over 100 µM; in the assay on K562 it was > 100 µM (inactive); with COLO 205, > 100 µM (inactive). The GI50 in the assay on SK-MEL-2, in the assay with TK-10, in the assay on MOLT-4 and in the assay with SF-295 was > 100 µM (inactive) throughout.

In the case of `Cc1cc(C)c(N)c(C)c1N`, the GI50 with HOP-92, in the assay on A498, in the assay on RXF 393, in the assay on NCI-H23, in the assay on NCI-H460 and in the assay with OVCAR-3 was > 100 µM (inactive) in each case. For the same compound, the GI50 in the assay with OVCAR-5 was > 100 µM (inactive); in the assay on HCT-15, over 100 µM; in the assay on K562 it was > 100 µM (inactive); in the assay with COLO 205, > 100 µM (inactive); in the assay with SK-MEL-2 it was > 100 µM (inactive); with TK-10, > 100 µM (inactive). Besides, the GI50 in the assay with MOLT-4, in the assay with HL-60 and in the assay with SF-295 was > 100 µM (inactive) throughout.

Turning to `Nc1nc2c(ncn2C2OC(CO)C(O)C2N)c(=O)[nH]1` (centres undefined), the GI50 with HOP-92, with A498, in the assay with NCI-H23, in the assay with NCI-H460, with OVCAR-3 and with OVCAR-5 was > 100 µM (inactive) in each case. Besides, the GI50 was > 100 µM (inactive) with HT-29; over 100 µM in the assay on HCT-15; 86.9 µM (inactive) with K562; > 100 µM (inactive) in the assay on COLO 205; > 100 µM (inactive) in the assay with SK-MEL-2; > 100 µM (inactive) in the assay on TK-10. Further, the GI50 is > 100 µM (inactive) in the assay with MOLT-4, 97.9 µM (inactive) in the assay on HL-60 and > 100 µM (inactive) in the assay with SF-295.

Take `CNC(=S)OCCC(C)CCCC(C)C` (centres undefined): the GI50 in the assay with A498 was 16.3 µM (inactive); in the assay with RXF 393, 16.2 µM (inactive); in the assay with NCI-H23 it was 18.8 µM (inactive); with NCI-H460, 18.7 µM (inactive); in the assay with OVCAR-5, 11.3 µM (inactive); in the assay on HT-29, 17.3 µM (inactive). Moreover, the GI50 is 16.7 µM (inactive) in the assay with OVCAR-4; 14.7 µM in the assay on HCT-15; 13.7 µM (inactive) in the assay with K562; 13.7 µM (inactive) in the assay on SK-MEL-2; 12.8 µM (inactive) in the assay on TK-10; 11.2 µM (inactive) with MOLT-4. Besides, the results for the GI50 in the assay on HL-60 and in the assay with SF-295 were 6.84 µM (inactive) and 21.5 µM (inactive), respectively.

As to `CC(C(=O)N1C(=O)N(C(=O)C(C)C(O)c2ccccc2)C2CCCCC21)C(O)c1ccccc1` (centres undefined), the GI50 in the assay on RXF 393 was 66.1 µM (inactive); with NCI-H23 it was > 100 µM (inactive); in the assay on NCI-H460 it was 49.1 µM (inactive); in the assay on OVCAR-3, 78.2 µM (inactive); in the assay on OVCAR-5 it was > 100 µM (inactive); with HT-29, > 10 µM (inactive). Further, the GI50 with OVCAR-4 was 57.4 µM (inactive); in the assay on HCT-15, over 100 µM; in the assay on K562 it was > 10 µM (inactive); in the assay on COLO 205 it was > 100 µM (inactive); with SK-MEL-2, 30.3 µM (inactive); with TK-10, > 100 µM (inactive). The GI50 with MOLT-4 was 26.2 µM (inactive); with HL-60, 27.7 µM (inactive); in the assay with SF-295, 34.9 µM (inactive).

With `COc1ccc(CCN2CCC(C#N)(c3ccc(OC)c(OC)c3)CC2)cc1OC`, the GI50 with HOP-92 was 13.5 µM (inactive); with RXF 393, 49.1 µM (inactive); with NCI-H23, > 100 µM (inactive); in the assay on NCI-H226 it was > 100 µM (inactive); with NCI-H460, > 100 µM (inactive); with OVCAR-3, > 100 µM (inactive). Further, the GI50 in the assay with OVCAR-5 was > 100 µM (inactive); in the assay with HT-29, > 100 µM (inactive); with OVCAR-4, > 100 µM (inactive); in the assay on HCT-15, over 100 µM; with K562, > 100 µM (inactive); in the assay with COLO 205 it was > 100 µM (inactive). Besides, the GI50 with SK-MEL-2 was > 100 µM (inactive); in the assay with TK-10, 76.2 µM (inactive); in the assay with MOLT-4 it was > 100 µM (inactive); with HL-60 it was > 100 µM (inactive); with SF-295, 79.6 µM (inactive).

Take `CC(=O)/C=C1/c2ccccc2N(C(C)=O)C1O` (centres undefined): the GI50 in the assay with HOP-92, with A498, in the assay on RXF 393, with NCI-H23, with NCI-H460 and in the assay with OVCAR-3 was > 100 µM (inactive) in each case. In addition, the GI50 was > 100 µM (inactive) with HT-29; > 100 µM (inactive) with OVCAR-4; over 100 µM in the assay on HCT-15; > 100 µM (inactive) in the assay on K562; > 100 µM (inactive) with COLO 205; > 100 µM (inactive) in the assay with SK-MEL-2. The GI50 in the assay with MOLT-4, with HL-60 and with SF-295 was > 100 µM (inactive) throughout.

Consider `c1ccc2c(c1)n1nnnc1c1nnnn21`, for which the GI50 with HOP-92 is 18.6 µM (inactive); in the assay on A498 it was > 100 µM (inactive); with RXF 393, 87.3 µM (inactive); in the assay on NCI-H23, > 100 µM (inactive); with NCI-H226, > 100 µM (inactive); in the assay on NCI-H460 it was > 100 µM (inactive). Also, the GI50 with OVCAR-3 was > 100 µM (inactive); with OVCAR-5 it was > 100 µM (inactive); in the assay with HT-29 it was > 100 µM (inactive); with OVCAR-4 it was 32.4 µM (inactive); with HCT-15, over 100 µM; in the assay on K562 it was > 100 µM (inactive). Further, the GI50 with COLO 205 is > 100 µM (inactive); in the assay on SK-MEL-2, > 100 µM (inactive); in the assay with TK-10, > 100 µM (inactive); in the assay with MOLT-4 it was > 100 µM (inactive); in the assay with SF-295, 77.8 µM (inactive).

As to `CCCSc1ccc2[nH]c(/N=C/c3ccco3)cc2c1`, the GI50 is 81.8 µM (inactive) in the assay with HOP-92; 34.4 µM (inactive) with A498; 22.3 µM (inactive) in the assay on RXF 393; 33.8 µM (inactive) with NCI-H23; 29.8 µM (inactive) in the assay with OVCAR-3; 6.08 µM (inactive) in the assay with OVCAR-5. In addition, the GI50 was 14.3 µM (inactive) with HT-29; 39.4 µM (inactive) in the assay with OVCAR-4; 24.3 µM with HCT-15; 22 µM (inactive) in the assay on COLO 205; 23.7 µM (inactive) in the assay on SK-MEL-2; 29.8 µM (inactive) in the assay with HL-60. The GI50 with SF-295 was > 100 µM (inactive).

For the compound `O=C1NC(=S)NC(=O)C1=Cc1cc2c(cc1[N+](=O)[O-])OCO2`, the GI50 in the assay with A498, in the assay on RXF 393, in the assay on NCI-H226, in the assay with NCI-H460, in the assay on OVCAR-3 and in the assay with OVCAR-4 was > 100 µM (inactive) each time. For the same compound, the GI50 was 39.7 µM in the assay on HCT-15; 41.8 µM (inactive) with K562; > 100 µM (inactive) with COLO 205; > 100 µM (inactive) in the assay on SK-MEL-2; > 100 µM (inactive) with TK-10; 51.4 µM (inactive) with MOLT-4. In addition, in the assay on HL-60, the GI50 is 35.8 µM (inactive).

On to `Cn1ncc2c(c1=O)Nc1ccccc1S2(=O)=O`, for which the GI50 in the assay on HOP-92, in the assay with A498, with NCI-H23, in the assay on NCI-H226, in the assay with NCI-H460 and in the assay with OVCAR-3 was > 100 µM (inactive) throughout. The GI50 in the assay with OVCAR-5 was > 100 µM (inactive); with HT-29 it was > 100 µM (inactive); in the assay with OVCAR-4 it was > 100 µM (inactive); in the assay with HCT-15 it was over 100 µM; with K562, > 100 µM (inactive); with COLO 205, 54.7 µM (inactive). The GI50 with SK-MEL-2, in the assay with TK-10, with MOLT-4 and in the assay on SF-295 was > 100 µM (inactive) throughout.

On to `Cc1cc(NCCCCCCCNc2cc(C)nc3cc(N)ccc23)c2ccc(N)cc2n1`, for which the GI50 in the assay on A498 is 43.2 µM (inactive); in the assay on RXF 393 it was 79.3 µM (inactive); with NCI-H23 it was 30.8 µM (inactive); in the assay on NCI-H226 it was 20.4 µM (inactive); in the assay on NCI-H460, 27.2 µM (inactive); with OVCAR-3 it was 44 µM (inactive). In addition, the GI50 with OVCAR-5 was > 100 µM (inactive); with HT-29 it was 34 µM (inactive); with OVCAR-4 it was 72.3 µM (inactive); in the assay with HCT-15 it was over 100 µM; in the assay on K562, 1.37 µM (inactive); with COLO 205, 14 µM (inactive). Besides, the GI50 in the assay with SK-MEL-2 is 78.3 µM (inactive); in the assay with TK-10, > 100 µM (inactive); with MOLT-4, 33.4 µM (inactive); in the assay with HL-60, 3.1 µM (inactive); in the assay on SF-295 it was 10.3 µM (inactive).

For `COC(=O)c1ccc(N/C=C(/C#N)c2ccsc2)cc1`, the GI50 was 4.06 µM (inactive) with A498; 11.4 µM (inactive) in the assay on RXF 393; 10.7 µM (inactive) in the assay on NCI-H23; 20.7 µM (inactive) in the assay on NCI-H226; 32.6 µM (inactive) in the assay with NCI-H460; 9.66 µM (inactive) with OVCAR-3. Besides, the GI50 in the assay on OVCAR-5 was > 100 µM (inactive); in the assay with HT-29, 11.1 µM (inactive); in the assay with HCT-15 it was 50.9 µM; with K562, > 100 µM (inactive); in the assay on COLO 205, 67.1 µM (inactive); with SK-MEL-2, 22.2 µM (inactive). Moreover, the GI50 was 16.8 µM (inactive) with TK-10, > 100 µM (inactive) in the assay with MOLT-4, > 100 µM (inactive) with HL-60 and 7.18 µM (inactive) in the assay on SF-295.

These data come from ChEMBL document CHEMBL1201862, “PubChem BioAssay data set” (2004).
